Values quoted from earlier work, collected in US20230099183A1, “STEVIOL GLYCOSIDE AND GLYCERIN FORMULATIONS FOR FOOD AND BEVERAGES” (Sweegen, Inc., priority 2021, published 2023).

Assays:
[1] = background statement on natural steviol glycosides
[2] = background statement; concentration in food or beverage

Molecule | degree of sweetness, times sweeter than sucrose [1] | concentration above which bitterness is perceptible [2]
C=C1C[C@@]23CC[C@H]4[C@@](C)(CCC[C@@]4(C)C(=O)O[C@@H]4O[C@H](CO)[C@@H](O)[C@H](O)[C@H]4O)[C@@H]2CC[C@]1(O[C@@H]1O[C@H](CO)[C@@H](O)[C@H](O)[C@H]1O[C@@H]1O[C@@H](C)[C@H](O)[C@@H](O)[C@H]1O)C3 [Dulcoside A] | about 30 times sweeter than sucrose | –
C=C1C[C@@]23CC[C@H]4[C@@](C)(CCC[C@@]4(C)C(=O)O[C@@H]4O[C@H](CO)[C@@H](O)[C@H](O)[C@H]4O)[C@@H]2CC[C@]1(O[C@@H]1O[C@H](CO)[C@@H](O)[C@H](O[C@@H]2O[C@H](CO)[C@@H](O)[C@H](O)[C@H]2O)[C@H]1O[C@@H]1O[C@H](CO)[C@@H](O)[C@H](O)[C@H]1O)C3 [Reb A] | – | above 200 ppm
C=C1C[C@@]23CC[C@H]4[C@@](C)(CCC[C@@]4(C)C(=O)O[C@@H]4O[C@H](CO)[C@@H](O)[C@H](O)[C@H]4O)[C@@H]2CC[C@]1(O[C@@H]1O[C@H](CO)[C@@H](O)[C@H](O)[C@H]1O[C@@H]1O[C@H](CO)[C@@H](O)[C@H](O)[C@H]1O)C3 [stevioside] | 100-150 times sweeter than sucrose | –
Rebaudioside C | 40-60 times sweeter than sucrose | –
